The target of this experiment is hJAK3 kinase domain (aa781-end) (Homo sapiens (Human), UniProt P52333). Kind of experiment: JAK3 activity inhibition, kinase reaction (HTRF, TK substrate-biotin).
hJAK3 kinase domain (aa781-end), sequence (P52333 781-1124 limits assumed): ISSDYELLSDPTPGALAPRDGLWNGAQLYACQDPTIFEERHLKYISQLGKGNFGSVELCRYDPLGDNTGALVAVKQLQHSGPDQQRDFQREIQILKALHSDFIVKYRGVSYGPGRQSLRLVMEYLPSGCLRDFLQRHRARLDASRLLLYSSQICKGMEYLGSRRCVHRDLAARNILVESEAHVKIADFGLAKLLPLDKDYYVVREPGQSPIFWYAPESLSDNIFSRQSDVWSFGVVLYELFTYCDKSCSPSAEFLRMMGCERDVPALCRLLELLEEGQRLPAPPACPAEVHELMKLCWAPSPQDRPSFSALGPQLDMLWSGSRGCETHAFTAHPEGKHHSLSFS
Experimental: JAK3 activity inhibitory effects of test compounds were evaluated by the following kinase reactions.
In the kinase reactions, fused proteins (6His tag-fused hJAK3 kinase domain (aa781-end)) which were coexpressed in Sf21 cells and purified by Ni2+/NTA agarose were used.
A well in which ATP was not added was set out as a blank well.
Plates were let stand at room temperature for 10 minutes from starting reactions.
One hour after the addition of the buffer for detection, fluorescence counts of each well were measured by a fluorescence microplate reader.
Data were obtained by deducting the average Ratio of a blank well from Ratio of each well.
In turn, `N#CCCN1CCCC12CCN(c1ncnc3[nH]ccc13)C2` (racemic) [Compound 53] registered an IC50 of 56 nM.
The figure for `c1ccc(CN2CCCC23CCN(c2ncnc4[nH]ccc24)C3)cc1` (racemic) [Compound 90] is 550 nM; for `N#CCC(=O)N1CCCCC12CCN(c1c(Cl)cnc3[nH]ncc13)C2` (racemic) [Compound 93] it is 110 nM.

The values are drawn from US8609647B2, “Nitrogen-containing spirocyclic compounds and pharmaceutical uses thereof” (Japan Tobacco Inc., priority 2009, dated 2013).
